Measured values taken from patent US20130217678A1, “PHARMACEUTICAL AGENT COMPRISING QUINOLONE COMPOUND” (OTSUKA PHARMACEUTICAL CO., LTD., priority 2008, published 2013).

Columns and labels:
[1] = test system: human neuroblastoma cell lines SH-SY5Y treated with 1-methyl-4-phenylpyridinium (MPP+); assay: Improvement of mitochondrial function (Alamar Blue mitochondrial oxidation reduction activity) in MPP+-treated SH-SY5Y cells; format: cell-based; details: 1.5 mM MPP+, relative to cells in DMSO alone = 100%, read-out: Fluorescence Intensity (%); for activity at 0.01 µg/mL: compound 0.01 μg/ml; for activity at 0.03 µg/mL: compound 0.03 μg/ml; for activity at 0.1 µg/mL: compound 0.1 μg/ml; for activity at 0.3 µg/mL: compound 0.3 μg/ml; for activity at 1 µg/mL: compound 1 μg/ml
Experimental: In human neuroblastoma cell lines SH-SY5Y in which mitochondrial function was damaged by MPP^+ treatment (Bollimuntha S. et al., J Biol Chem, 280, 2132-2140 (2005) and Shang T. et al., J Biol Chem, 280, 34644-34653 (2005)), the improvement of mitochondrial function was evaluated on the basis of the measurement value for mitochondrial oxidation reduction activity using Alamar Blue fluorescent dye after the compound addition (Nakai M. et al, Exp Neurol, 179, 103-110 (2003)).
The human neuroblastoma cell lines SH-SY5Y were cultured in Dulbecco's Modified Eagle's Medium containing 10% fetal bovine serum (DMEM containing 50 units/ml penicillin and 50 μg/ml streptomycin as antibiotics) at 37° C. in the presence of 5% carbon dioxide. Cells were scattered on a poly-D-lysine-coated 96-well black plate at a concentration of 3−6×10^4 cells/cm^2 (medium amount: 100 μl/well) and cultured in the medium for two days. Further, the medium was changed to DMEM containing a 1% N2 supplement (N2-DMEM) or to a medium (100 μl/well) in which 1.5 mM MPP^+ was dissolved. The cells were cultured therein for 39 to 48 hours, and then subjected to a mitochondrial oxidation reduction activity measurement system. A sample compound that had been previously dissolved in dimethyl sulfoxide (DMSO) was diluted with N2-DMEM and added in a volume of 10 μl/well 24 hours before the activity measurement (final compound concentration: 0.01 to 1 μg/ml).
After removal of the medium by suction, a balanced salt solution containing 10% Alamar Blue (154 mM sodium chloride, 5.6 mM potassium chloride, 2.3 mM calcium chloride, 1.0 mM magnesium chloride, 3.6 mM sodium hydrogen carbonate, 5 mM glucose, 5 mM HEPES, pH 7.2) was added in a volume of 100 μl/well, and reacted in an incubator at 37° C. for 1 hour. The fluorescent intensity was detected using a fluorescence detector (a product of Hamamatsu Photonics K.K., excitation wavelength: 530 nm, measurement wavelength: 580 nm) to thereby measure the mitochondrial oxidation reduction activity.
The fluorescent intensity of the well of the cells cultured in a medium containing MPP^+ and each of the sample compounds was relatively evaluated based on the 100% fluorescent intensity of the well of the cells cultured in a medium containing DMSO alone (final concentration: 0.1%).

Row | SMILES | activity at 0.01 µg/mL [1] [%] | activity at 0.03 µg/mL [1] [%] | activity at 0.1 µg/mL [1] [%] | activity at 0.3 µg/mL [1] [%] | activity at 1 µg/mL [1] [%] | melting point [°C]
1 | CCn1cc(-c2ccc(OC)cc2)c(=O)c2ccc(OC)cc21 [Example 2, 1-Ethyl-7-methoxy-3-(4-methoxyphenyl)-1H-quinolin-4-one] | 71 | 73 | 74 | 77 | 81 | 129 to 131
2 | CCCOc1cccc2c(=O)c(-c3ccc(OC)cc3)c[nH]c12 [Example 3, 3-(4-Methoxyphenyl)-8-propoxy-1H-quinolin-4-one] | 68 | 77 | 77 | 83 | 67 | 231 to 233
3 | CCCOc1ccc(OC)c2c(=O)c(-c3ccc(OC)cc3)c[nH]c12 [Example 13, 5-Methoxy-3-(4-methoxyphenyl)-8-propoxy-1H-quinolin-4-one] | 56 | 65 | 74 | 69 | 62 | 223 to 224
4 | COc1ccc(-c2c[nH]c3c(Oc4ccccc4)cccc3c2=O)cc1 [Example 18, 3-(4-Methoxyphenyl)-8-phenoxy-1H-quinolin-4-one] | 29 | 45 | 44 | 47 | 30 | 250 to 251
5 | CCCOc1ccc(C)c2c(=O)c(-c3ccc(OC)cc3OC)c[nH]c12 [Example 20, 3-(2,4-Dimethoxyphenyl)-5-methyl-8-propoxy-1H-quinolin-4-one] | 65 | 67 | 74 | 78 | 77 | 193 to 194
6 | CCCOc1ccc(OC)c2c(=O)c(-c3ccc(OC)cc3OC)c[nH]c12 [Example 21, 3-(2,4-Dimethoxyphenyl)-5-methoxy-8-propoxy-1H-quinolin-4-one] | 65 | 68 | 77 | 82 | 84 | 113 to 114
7 | CCCOc1c(C)cc(C)c2c(=O)c(-c3ccc(OC)cc3)c[nH]c12 [Example 23, 3-(4-Methoxyphenyl)-5,7-dimethyl-8-propoxy-1H-quinolin-4-one] | 51 | 63 | 67 | 68 | 59 | 174 to 175
8 | CCCOc1ccc(C(F)(F)F)c2c(=O)c(-c3ccc(OC)cc3)c[nH]c12 [Example 24, 3-(4-Methoxyphenyl)-8-propoxy-5-trifluoromethyl-1H-quinolin-4-one] | 50 | 57 | 64 | 63 | 36 | 220 to 221
9 | CCCOc1cccc2c(=O)c(-c3ccccc3C(F)(F)F)c[nH]c12 [Example 32, 8-Propoxy-3-(2-trofluoromethylphenyl)-1H-quinolin-4-one] | 49 | 53 | 54 | 57 | 61 | 224
10 | COc1ccc(-c2c[nH]c3c(N4CCCCCC4)ccc(C)c3c2=O)cc1 [Example 84, 8-Azepan-1-yl-3-(4-methoxyphenyl)-5-methyl-1H-quinolin-4-one] |  |  |  |  |  | 249 to 250
11 | CCCOc1cc(-n2ccnc2)cc2c(=O)c(-c3ccc(OC)cc3)c[nH]c12 [Example 85, 6-Imidazol-1-yl-3-(4-methoxyphenyl)-8-propoxy-1H-quinolin-4-one] |  |  |  |  |  | 236 to 237
12 | COc1ccc(-c2c[nH]c3c(OCC4CC4)ccc(OC)c3c2=O)cc1 [Example 88, 8-Cyclopropylmethoxy-5-methoxy-3-(4-methoxyphenyl)-1H-quinolin-4-one] |  |  |  |  |  | 212 to 214
13 | COc1ccc(-c2c[nH]c3c(C(=O)N(C)C)ccc(C)c3c2=O)cc1 [Example 89, 3-(4-Methoxyphenyl)-5-methyl-4-oxo-1,4-dihydroquinolin-8-carboxylic acid dimethylamide] |  |  |  |  |  | 158 to 160
14 | COc1ccc(-c2c[nH]c3c(C(=O)N4CCCC4)ccc(C)c3c2=O)cc1 [Example 90, 3-(4-Methoxyphenyl)-5-methyl-8-(pyrrolidine-1-carbonyl)-1H-quinolin-4-one] |  |  |  |  |  | 193 to 195
15 | COc1ccc(-c2c[nH]c3c(OC4CCCC4)ccc(C)c3c2=O)cc1 [Example 91, 8-Cyclopentyloxy-3-(4-methoxyphenyl)-5-methyl-1H-quinolin-4-one] |  |  |  |  |  | 237 to 239
16 | CCCOc1ccc(C)c2c(=O)c(-c3ccc(OC)cc3)cn(CC3CC3)c12 [Example 92, 1-Cyclopropylmethyl-3-(4-methoxyphenyl)-5-methyl-8-propoxy-1H-quinolin-4-one] |  |  |  |  |  | 100 to 101
17 | COc1ccc(-c2c[nH]c3c(OC4CCCC4)ccc(OC)c3c2=O)cc1 [Example 93, 8-Cyclopentyloxy-5-methoxy-3-(4-methoxyphenyl)-1H-quinolin-4-one] |  |  |  |  |  | 213 to 215
18 | CCOc1ccc(OCC)c2c(=O)c(-c3ccc(F)cc3)c[nH]c12 [Example 94, 5,8-Diethoxy-3-(4-fluorophenyl)-1H-quinolin-4-one] |  |  |  |  |  | 232 to 234
19 | COc1ccc(-c2c[nH]c3c(-c4ccsc4)ccc(C)c3c2=O)cc1 [Example 97, 3-(4-Methoxyphenyl)-5-methyl-8-thiophen-3-yl-1H-quinolin-4-one] |  |  |  |  |  | 189 to 190
20 | COc1ccc(-c2c[nH]c3c(-c4cc5ccccc5s4)ccc(C)c3c2=O)cc1 [Example 98, 8-Benzo[b]thiophen-2-yl-3-(4-methoxyphenyl)-5-methyl-1H-quinolin-4-one] |  |  |  |  |  | 229 to 231
21 | COc1ccc(-c2c[nH]c3c(N(C)C4CCCCC4)ccc(C)c3c2=O)cc1 [Example 99, 8-(N-Cyclohexyl-N-methylamino)-3-(4-methoxyphenyl)-5-methyl-1H-quinolin-4-one] |  |  |  |  |  | 186 to 187
22 | COc1ccc(-c2c[nH]c3c(-c4cccs4)ccc(C)c3c2=O)cc1 [Example 100, 3-(4-Methoxyphenyl)-5-methyl-8-thiophen-2-yl-1H-quinolin-4-one] |  |  |  |  |  | 197 to 199
23 | COc1ccc(-c2c[nH]c3c(N(C)CC(C)C)ccc(C)c3c2=O)cc1 [Example 102, 8-(N-Isobutyl-N-methyl-amino)-3-(4-methoxyphenyl)-5-methyl-1H-quinolin-4-one] |  |  |  |  |  | 111 to 113
24 | COc1ccc(-c2c[nH]c3c(N(C)C(C)C)ccc(C)c3c2=O)cc1 [Example 103, 8-(N-Isopropyl-N-methylamino)-3-(4-methoxyphenyl)-5-methyl-1H-quinolin-4-one] |  |  |  |  |  | 186 to 187
25 | COc1ccc(OC2CCCC2)c2[nH]cc(-c3ccc(Cl)cc3Cl)c(=O)c12 [Example 104, 8-Cyclopentyloxy-3-(2,4-dichlorophenyl)-5-methoxy-1H-quinolin-4-one] |  |  |  |  |  | 266 to 268
26 | COc1ccc(OCC2CC2)c2[nH]cc(-c3ccc(Cl)cc3Cl)c(=O)c12 [Example 105, 8-Cyclopropylmethoxy-3-(2,4-dichlorophenyl)-5-methoxy-1H-quinolin-4-one] |  |  |  |  |  | 254 to 256
27 | O=c1c(-c2ccc(Cl)cc2Cl)c[nH]c2c(OC3CCCC3)ccc(O)c12 [Example 106, 8-Cyclopentyloxy-3-(2,4-dichlorophenyl)-5-hydroxy-1H-quinolin-4-one] |  |  |  |  |  | 154 to 155
28 | O=c1c(-c2ccc(Cl)cc2Cl)c[nH]c2c(OCC3CC3)ccc(O)c12 [Example 107, 8-Cyclopropylmethoxy-3-(2,4-dichlorophenyl)-5-hydroxy-1H-quinolin-4-one] |  |  |  |  |  | 163 to 165
